Test: Binding constant of the compound

Binding constant [M⁻¹]	Structure (SMILES)
100000	CN(CCCN)CCCN1C(=O)c2ccc3c4c(ccc(c24)C1=O)C(=O)N(CCCN(C)CCCNC(=O)C(Cc1c[nH]cn1)NC(=O)CNC(=O)CN)C3=O (configuration not stated)
100000	CN(CCCNC(=O)C(Cc1c[nH]cn1)NC(=O)CNC(=O)CN)CCCN1C(=O)c2ccc3c4c(ccc(c24)C1=O)C(=O)N(CCCN(C)CCCNC(=O)C(Cc1c[nH]cn1)NC(=O)CNC(=O)CN)C3=O (configuration not stated)
